The values below come from patent US4631292A, “1,3-dioxane derivatives, method of their synthesis and anti-peptic ulcer agent” (Kotobuki Seiyaku Co., Ltd., priority 1983, dated 1986).

Usually % inhibition stands for the drop in the measured response relative to a control, in per cent. Read a low % inhibition as little suppression.

The subject of experiment [1] is aspirin-induced pylorus-ligated rats. The experiment is described as follows: Aspirin-induced ulcer in pylorus-ligated rats (method of S. Okabe). It is filed as in vivo. As to conditions: oral dose 500 mg/kg. As for the experimental part:
(1) The effect of the compounds of the invention is examined by using aspirin-induced pylorus-ligated rats according to the methods of S. Okabe (Oyo-Yakuri 9 (1), 31-37 1975). The test compounds are given orally at a dose of 500 mg./kg.

A further experiment concerns ethanol induced ulcer. The experiment is described as follows: Ethanol induced ulcer (method of L. Robert, modified). It is filed as in vivo. As to conditions: ethanol/HCl induced ulcer, rats; for ulcer index (mm): 30 min before ethanol, 1 hour after ethanol. As for the experimental part:
(2) The effect on ethanol induced ulcer is examined according to the method of L. Robert (Gastroenterology 77,433-443, 1979) with some modification. Rats are fasted for 24 hrs. and after 30 min. of the oral test drug administration, 1 ml. of 60% ethanol of 150 mM hydrochloric acid solution is given.
Exactly 1 hour later, the animals are sacrificed and the stomach is removed to examine their ulcer index.

For the molecule `CC1CCC(C(C)C)C2(C1)OCCC(C)O2` (centres unmarked) [Compound 6, spiro[2isopropyl-5-methyl-cyclohexane-1,2'-4'-methyl 1',3']dioxane], in experiment [1], the “% inhibition” value was found to be 53.9% and the “ulcer index (mm) ± S.E.” value worked out at 10.3 ± 4.16 mm.

On to `CC(C)=CCCC1(C)OC(C)CC(C)O1` (centres unmarked) [Compound 11, 2-(4-methyl-3-pentenyl)-2-methyl-4,6-dimethyl-1,3-dioxane], for which, in experiment [1], the “% inhibition” value is on record as 33.7% and the “ulcer index (mm) ± S.E.” value was determined as 14.5 ± 5.12 mm.

On to `CC(C)=CCCC1(C)OCCC(C)O1` (centres unmarked) [Compound 5, 2-(4-methyl-3-pentenyl)-2-methyl-4-methyl-1,3-dioxane], for which, in experiment [1], the “% inhibition” value was 88.1% and the “ulcer index (mm) ± S.E.” value is recorded as 2.2 ± 0.8 mm. Besides, in the experiment with ethanol induced ulcer (oral dose 100 mg/kg), the “% inhibition” value was determined as 59.7% and the “ulcer index (mm)” value was 27.1 ± 7.3 mm. For the same molecule, in the experiment on ethanol induced ulcer (oral dose 500 mg/kg), the “% inhibition” value is 95.1% and the “ulcer index (mm)” value is reported as 3.3 ± 1.2 mm.

Regarding `CC(C)=CCCC1OCCC(C)O1` (centres unmarked) [Compound 1, 2-(4-methyl-3-pentene)-6-methyl-1,3-dioxane], in experiment [1], the “% inhibition” value stood at 50.6% and the “ulcer index (mm) ± S.E.” value came to 11.0 ± 2.98 mm.

Take `CC(C)=CCCC(C)CC1OCCC(C)O1` (centres unmarked) [Compound 2, 2-(2,6-dimethyl-5-heptene)-6-methyl-1,3-dioxane]: in experiment [1], the “% inhibition” value came to 35.9% and the “ulcer index (mm) ± S.E.” value came out at 27.8 ± 7.1 mm.
